Laboratory results reported in patent US7842710B2, “Carboxamides” (Bayer Cropscience AG, priority 2004, dated 2010).

Key:
Puccinia recondita = test: Puccinia test (wheat)/protective; type: in vivo; conditions: 240 h, protective, application rate 500 g/ha, evaluation ten days after inoculation, 0% = control, 100% = no infestation, read-out: Degree of effectiveness in %
Experimental: [table] To produce an appropriate active ingredient preparation, one part by weight of the active substance is mixed with the specified quantities of solvent and emulsifying agent, and the concentrate is diluted with water to the desired concentration. Young plants are sprayed with the active ingredient preparation at the specified application rate to test the effectiveness of protection. After the sprayed coating has dried, the plants are sprayed with a conidia suspension of Puccinia recondita. The plants are kept in an incubator at 20° C. and 100% relatively humidity for 48 hours. Then the plants are placed in a greenhouse at a temperature of about 20° C. and a relatively humidity of 80%, in order to promote the development of rust spots. The evaluation is performed ten days after the inoculation. A degree of effectiveness rating of 0% corresponds to the control, with 100% indicating no infestation observed.

[1] = logP determination by HPLC on a reverse phase column (C18), EEC Directive 79/831 Annex V.A8; type: physicochemical; conditions: pH 2 as printed, HPLC C18, 43° C.
[2] = as above; type: physicochemical; conditions: HPLC C18, 43° C., Table 1
Experimental: The specified logP values are determined by HPLC on a reverse phase column (C18) in accordance with EEC Directive 79/831 Annex V.A8. Temperature: 43° C. Eluents for the measurement in the acid range (pH 2.3): 0.1% aqueous phosphoric acid, acetonitrile; linearer gradient of 10% acetonitrile to 90% acetonitrile. Calibration is performed with unbranched alkyl-2-ones (with 3 to 16 carbon atoms) with known logP values (determination of the logP values based on retention times by linear interpolation between two sequential alkyl ketones).

Podosphaera leucotricha = test: Podosphaera test (apple)/protective; type: in vivo; conditions: protective, application rate 100 g/ha, evaluation ten days after inoculation, 0% = control, 100% = no infestation
Experimental: (§1) [table] To produce an appropriate active ingredient preparation, one part by weight of the active substance is mixed with the specified quantities of solvent and emulsifying agent, and the concentrate is diluted with water to the desired concentration. Young plants are sprayed with the active ingredient preparation at the specified application rate to test the effectiveness of protection. After the sprayed coating has dried, the plants are inoculated with an aqueous spore suspension of the apple mildew pathogen Podosphaera leucotricha. Then the plants are placed in the greenhouse at about 23° C. with relative humidity of about 70%. The evaluation is performed ten days after the inoculation. A degree of effectiveness rating of 0% corresponds to the control, with 100% indicating no infestation observed.

Venturia inaequalis = test: Venturia test (apple)/protective; type: in vivo; conditions: protective, application rate 100 g/ha, evaluation ten days after inoculation, 0% = control, 100% = no infestation
Experimental: as §1, with “conidia” for “spore”, “scab” for “mildew”, “Venturia inaequalis and are then kept in an incubator at 20° C. and 100% relatively humidity for one day.” for “Podosphaera leucotricha.”, “21°” for “23°”, “90%.” for “70%.”

Botrytis cinerea = test: Botrytis test (bean)/protective; type: in vivo; conditions: protective, application rate 500 g/ha, evaluation two days after inoculation, 0% = control, 100% = no infestation
Experimental: [table] To produce an appropriate active ingredient preparation, one part by weight of the active substance is mixed with the specified quantities of solvent and emulsifying agent, and the concentrate is diluted with water to the desired concentration. Young plants are sprayed with the active ingredient preparation at the specified application rate to test the effectiveness of protection. After the sprayed coating has dried, two small pieces of agar with cultured Botrytis cinerea are placed on each leaf. The inoculated plants are placed in a darkened chamber at about 20° C. and 100% relatively humidity. Two days after the inoculation, the size of the infestation spots on the leaves is evaluated. A degree of effectiveness rating of 0% corresponds to the control, with 100% indicating no infestation observed.

Alternaria solani = test: Alternaria test (tomato)/protective; type: in vivo; conditions: protective, application rate 750 g/ha, evaluation seven days after inoculation, 0% = control, 100% = no infestation
Experimental: [table] To produce an appropriate active ingredient preparation, one part by weight of the active substance is mixed with the specified quantities of solvent and emulsifying agent, and the concentrate is diluted with water to the desired concentration. Young tomato plants are sprayed with the active ingredient preparation at the specified application rate to test the effectiveness of protection. One day after treatment, the plants are inoculated with a spore suspension of Alternaria solani and are kept for 24 hours at 100% relatively humidity and 20° C. Subsequently, the plants are kept at 96% relatively humidity and a temperature of 20° C. The evaluation is performed seven days after the inoculation. A degree of effectiveness rating of 0% corresponds to the control, with 100% indicating no infestation observed.

SMILES	pest or weed control at 500 g/ha (Puccinia recondita) [%]	logP (pH 2.3) [2]	other results
Cc1nn(C)c(F)c1C(=O)Nc1ccccc1C(C)OC(C)C (stereo not drawn)	100		
CCC(C)SC(C)c1ccccc1NC(=O)c1sccc1C (stereo not drawn)	100		
CC(C)SC(C)c1ccccc1NC(=O)c1c(C(F)(F)F)nn(C)c1F (stereo not drawn)	96		
Cc1nn(C)c(Cl)c1C(=O)Nc1ccccc1C(C)SC(C)C (stereo not drawn)	100		
CCCC(C)SC(C)c1ccccc1NC(=O)c1c(C)nn(C)c1Cl (stereo not drawn)	100		
Cc1nn(C)c(Cl)c1C(=O)Nc1ccccc1C(C)SC1CCCC1 (stereo not drawn)	100		
CC(C)S(=O)(=O)C(C)c1ccccc1[N+](=O)[O-] (stereo not drawn) [VII-4, 1-[1-(isopropylsulfonyl)ethyl]-2-nitrobenzene]			chromatographic logP [1]: 1.99
Cc1ccccc1C(=O)Nc1ccccc1C(C)SC1CCCC1 (stereo not drawn) [compound 99]		4.44	
Cc1nn(C)c(F)c1C(=O)Nc1ccccc1C(C)SC1CCCC1 (stereo not drawn) [compound 100]		4.03	
CC(SC1CCCC1)c1ccccc1NC(=O)c1cn(C)nc1C(F)F (stereo not drawn) [compound 101]		3.48	
Cc1occc1C(=O)Nc1ccccc1C(C)OC(C)C (stereo not drawn) [compound 126]		3.80	
CC(C)OC(C)c1ccccc1NC(=O)c1cn(C)nc1C(F)(F)F (stereo not drawn) [compound 127]		3.14	
CC1=C(C(=O)Nc2ccccc2C(C)OC(C)C)SCCO1 (stereo not drawn) [compound 128]		3.47	
CC(C)OC(C)c1ccccc1NC(=O)c1cn(C)nc1I (stereo not drawn) [compound 129]		2.75	
CC(C)OC(C)c1ccccc1NC(=O)c1ccccc1I (stereo not drawn) [compound 130]		3.83	
Cc1nc(C(F)F)c(C(=O)Nc2ccccc2C(C)OC(C)C)s1 (stereo not drawn) [compound 131]		3.58	
CC(C)OC(C)c1ccccc1NC(=O)c1cccnc1Cl (stereo not drawn) [compound 132]		2.72	
Cc1nc(C(F)(F)F)c(C(=O)Nc2ccccc2C(C)OC(C)C)s1 (stereo not drawn) [compound 133]		3.65	
CC(C)OC(C)c1ccccc1NC(=O)c1ccccc1C(F)(F)F (stereo not drawn) [compound 134]		3.81	
CC(C)OC(C)c1ccccc1NC(=O)c1cn(C)nc1C(F)F (stereo not drawn) [compound 135]		2.89	
CC(C)OC(C)c1ccccc1NC(=O)c1cnn(C)c1C(F)F (stereo not drawn) [compound 136]		3.67	
CC(C)OC(C)c1ccccc1NC(=O)C1=C(C(F)(F)F)OCCS1 (stereo not drawn) [compound 137]		3.64	
CC(C)OC(C)c1ccccc1NC(=O)c1cn(C)cc1C(F)(F)F (stereo not drawn) [compound 138]		5.60	
Cn1cc(C(=O)Nc2ccccc2CO)c(C(F)(F)F)n1 [compound 178]		1.61	
Cc1nn(C)c(F)c1C(=O)Nc1ccccc1C(C)SC(C)C (stereo not drawn) [drawing 482]			Degree of effectiveness in % (Podosphaera leucotricha): 91%
CC(C)SC(C)c1ccccc1NC(=O)c1cn(C)nc1C(F)F (stereo not drawn) [drawing 483]			Degree of effectiveness in % (Podosphaera leucotricha): 84%
CCC(C)SC(C)c1ccccc1NC(=O)c1cn(C)nc1C(F)F (stereo not drawn) [drawing 484]			Degree of effectiveness in % (Podosphaera leucotricha): 94%

SMILES	pest or weed control at 500 g/ha (Puccinia recondita) [%]	logP (pH 2.3) [2]	other results
Cc1nn(C)c(F)c1C(=O)Nc1ccccc1C(C)SC(C)C (stereo not drawn) [drawing 485]			Degree of effectiveness in % (Venturia inaequalis): 95%
CCCC(C)SC(C)c1ccccc1NC(=O)c1sc(C)nc1C(F)(F)F (stereo not drawn) [drawing 486]			Degree of effectiveness in % (Venturia inaequalis): 89%
CCC(C)SC(C)c1ccccc1NC(=O)c1cn(C)nc1C(F)F (stereo not drawn) [drawing 487]			Degree of effectiveness in % (Venturia inaequalis): 99%
CC(C)SC(C)c1ccccc1NC(=O)c1cn(C)nc1C(F)(F)F (stereo not drawn) [drawing 488]			Degree of effectiveness in % (Botrytis cinerea): 84%
CC(C)SC(C)c1ccccc1NC(=O)c1cn(C)nc1C(F)F (stereo not drawn) [drawing 489]			Degree of effectiveness in % (Botrytis cinerea): 100%
CCCC(C)SC(C)c1ccccc1NC(=O)c1sc(C)nc1C(F)(F)F (stereo not drawn) [drawing 490]			Degree of effectiveness in % (Botrytis cinerea): 99%
CCC(C)SC(C)c1ccccc1NC(=O)c1cn(C)nc1C(F)(F)F (stereo not drawn) [drawing 491]			Degree of effectiveness in % (Botrytis cinerea): 100%
CCCC(C)SC(C)c1ccccc1NC(=O)c1cn(C)nc1C(F)F (stereo not drawn) [drawing 492]			Degree of effectiveness in % (Botrytis cinerea): 97%
CC(C)SC(C)c1ccccc1NC(=O)c1cn(C)cc1C(F)(F)F (stereo not drawn) [drawing 493]			Degree of effectiveness in % (Botrytis cinerea): 97%
CC(C)SC(C)c1ccccc1NC(=O)c1cn(C)nc1C(F)(F)F (stereo not drawn) [drawing 494]	100		
Cc1nc(C(F)F)c(C(=O)Nc2ccccc2CSC(C)C)s1 [drawing 495]	93		
CCCC(C)SC(C)c1ccccc1NC(=O)c1sc(C)nc1C(F)(F)F (stereo not drawn) [drawing 496]	100		
CCC(C)SC(C)c1ccccc1NC(=O)c1c(C)nn(C)c1F (stereo not drawn) [drawing 497]	100		
CCC(C)SC(C)c1ccccc1NC(=O)c1cn(C)nc1C(F)(F)F (stereo not drawn) [drawing 498]	100		
CC(C)OC(C)c1ccccc1NC(=O)c1cn(C)nc1C(F)F (stereo not drawn) [drawing 499]	100		
CC(C)OC(C)c1ccccc1NC(=O)c1cn(C)nc1C(F)(F)F (stereo not drawn) [drawing 500]	100		
Cc1nn(C)c(F)c1C(=O)Nc1ccccc1C(C)SC(C)C (stereo not drawn) [drawing 502]	100		
CCC(C)SC(C)c1ccccc1NC(=O)c1cn(C)nc1C (stereo not drawn) [drawing 504]	100		
CCC(C)SC(C)c1ccccc1NC(=O)c1sc(C)nc1C(F)F (stereo not drawn) [drawing 505]	100		
CCCC(C)SC(C)c1ccccc1NC(=O)c1sc(C)nc1C(F)F (stereo not drawn) [drawing 506]	100		
CCC(C)SC(C)c1ccccc1NC(=O)c1cn(C)nc1C(F)F (stereo not drawn) [drawing 507]	100		
CCC(C)SC(C)c1ccccc1NC(=O)C1=C(C)OCCS1 (stereo not drawn) [drawing 508]	100		
CC1=C(C(=O)Nc2ccccc2C(C)SC(C)C)SCCO1 (stereo not drawn) [drawing 509]	100		
CC(C)SC(C)c1ccccc1NC(=O)c1cn(C)cc1C(F)(F)F (stereo not drawn) [drawing 510]	100		
CC(C)OCc1ccccc1NC(=O)c1cn(C)nc1C(F)(F)F [drawing 515]			Degree of effectiveness in % (Alternaria solani): 95%
Cc1nn(C)c(F)c1C(=O)Nc1ccccc1C(C)SC(C)C (stereo not drawn) [drawing 516]			Degree of effectiveness in % (Alternaria solani): 90%
CCC(C)SC(C)c1ccccc1NC(=O)c1c(C)nn(C)c1F (stereo not drawn) [drawing 517]			Degree of effectiveness in % (Alternaria solani): 95%
